Here are results for three compounds from US6630501B1, “Phosphinic pseudo-peptides that may be used as matrix zinc metalloprotease inhibitors” (Commissariat a l'energie Atomique, priority 1999, dated 2003).

The target of one experiment is T1, MMP-1 (HFC) (Homo sapiens, UniProt P03956).
T1 construct: made in house; host or cells: E. coli
T1 sequence (P03956 100-469): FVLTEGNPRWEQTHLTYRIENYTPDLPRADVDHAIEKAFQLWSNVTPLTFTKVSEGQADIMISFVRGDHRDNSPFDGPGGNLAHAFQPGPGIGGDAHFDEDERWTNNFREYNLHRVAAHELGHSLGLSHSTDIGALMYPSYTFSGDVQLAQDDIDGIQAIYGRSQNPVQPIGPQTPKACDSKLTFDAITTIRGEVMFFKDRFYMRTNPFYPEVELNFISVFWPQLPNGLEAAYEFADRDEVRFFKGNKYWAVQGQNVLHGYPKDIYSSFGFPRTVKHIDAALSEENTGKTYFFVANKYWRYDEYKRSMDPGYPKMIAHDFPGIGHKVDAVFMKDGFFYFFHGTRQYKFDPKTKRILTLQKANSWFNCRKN
The experiment in a line: Ki determination with fluorogenic synthetic substrates, recombinant MMP-1. The format is biochemical. As to the method: (§1) The MMPs used were produced in recombinant form, in an E. coli expression system, and then purified using different types of chromatographies. Apart from stromelysin-3 (MMP-11), the MMPs produces correspond to human sequences. The Stromelysin-3 used in this study corresponds to the murine form.
(§2) The activity of each MMP was determined using two fluorogenic synthetic substrates. The cutoff of said substrates, which generates a fluorescent signal proportional to the quantity of split substrate, enables a precise determination of the kinetic parameters. The affinity constants Ki were calculated using the equation of Horowitz et al, Proc. Natl. Acad. Sci. USA, 1987, 84, p. 6654-6658 [14], accounting for the dependency of the percentage of inhibition measured experimentally according to the concentration of inhibitor, as a function of the enzyme and substrate concentration.
(§3) The experiments for conducted in a Tris/50 mM HCl buffer, pH 6.8, 10 mM CaCl2, 25° C.

The next experiment deals with T2, MMP-8 (HNC) (Homo sapiens, UniProt P22894).
T2 construct: made in house; host or cells: E. coli
T2 sequence (P22894 101-467): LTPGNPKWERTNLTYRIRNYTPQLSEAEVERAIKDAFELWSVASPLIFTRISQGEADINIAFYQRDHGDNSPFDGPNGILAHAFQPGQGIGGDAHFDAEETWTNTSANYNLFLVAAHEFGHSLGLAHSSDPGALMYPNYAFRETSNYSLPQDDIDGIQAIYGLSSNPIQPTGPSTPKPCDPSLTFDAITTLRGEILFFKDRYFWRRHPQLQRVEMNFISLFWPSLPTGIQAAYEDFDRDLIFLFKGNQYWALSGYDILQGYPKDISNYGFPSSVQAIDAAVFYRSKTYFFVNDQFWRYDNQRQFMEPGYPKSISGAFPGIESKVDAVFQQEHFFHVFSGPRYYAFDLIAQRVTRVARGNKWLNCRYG
As to the kind of experiment: Ki determination with fluorogenic synthetic substrates, recombinant MMP-8. The experiment is classed as biochemical. As to conditions: Tris/50 mM HCl buffer, pH 6.8, 10 mM CaCl2, 25° C.; read-out: affinity constant Ki, MMP-8 HNC. As to the method:
as §1, §2, §3

The target of the next experiment is T3, MMP-14 (MT1-MMP) (Homo sapiens, UniProt P50281).
T3 construct: made in house; host or cells: E. coli
The experiment in a line: Ki determination with fluorogenic synthetic substrates, recombinant MMP-14. The format is biochemical. The note with it: Tris/50 mM HCl buffer, pH 6.8, 10 mM CaCl2, 25° C.; read-out: affinity constant Ki, MMP-14 MT1-MMP. As to the method:
as §1, §2, §3

In another experiment the target is T4, MMP-7 (Matrilysin) (Homo sapiens, UniProt P09237).
T4 construct: made in house; host or cells: E. coli
T4 sequence (P09237 95-267): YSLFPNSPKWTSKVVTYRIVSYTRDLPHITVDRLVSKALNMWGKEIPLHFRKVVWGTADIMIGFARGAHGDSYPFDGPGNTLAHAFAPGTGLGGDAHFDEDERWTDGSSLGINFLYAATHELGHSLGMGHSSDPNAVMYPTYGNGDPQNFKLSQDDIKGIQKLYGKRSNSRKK
The experiment in a line: Ki determination with fluorogenic synthetic substrates, recombinant MMP-7. The experiment is classed as biochemical. As to the method:
as §1, §2, §3

The target in another experiment is T5, MMP-9 (Gel-B) (Homo sapiens, UniProt P14780).
T5 construct: made in house; host or cells: E. coli
T5 sequence (P14780 94-707): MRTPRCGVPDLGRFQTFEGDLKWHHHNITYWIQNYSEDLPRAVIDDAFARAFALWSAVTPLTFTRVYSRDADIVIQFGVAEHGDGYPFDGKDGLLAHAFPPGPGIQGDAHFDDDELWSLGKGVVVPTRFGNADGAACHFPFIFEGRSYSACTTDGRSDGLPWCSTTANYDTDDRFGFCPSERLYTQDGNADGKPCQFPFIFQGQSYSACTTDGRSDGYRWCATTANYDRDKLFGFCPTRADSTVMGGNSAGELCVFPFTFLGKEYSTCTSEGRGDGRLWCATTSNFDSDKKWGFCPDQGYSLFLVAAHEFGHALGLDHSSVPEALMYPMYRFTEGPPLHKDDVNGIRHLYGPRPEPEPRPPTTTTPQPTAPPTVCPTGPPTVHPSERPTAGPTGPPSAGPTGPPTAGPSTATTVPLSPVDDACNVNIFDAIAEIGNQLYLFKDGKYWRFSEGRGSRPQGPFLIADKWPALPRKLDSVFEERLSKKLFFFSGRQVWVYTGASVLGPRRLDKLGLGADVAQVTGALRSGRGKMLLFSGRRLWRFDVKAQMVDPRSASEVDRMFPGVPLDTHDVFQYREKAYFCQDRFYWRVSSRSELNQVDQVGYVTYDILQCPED
The experiment in a line: Ki determination with fluorogenic synthetic substrates, recombinant MMP-9. The note with it: Tris/50 mM HCl buffer, pH 6.8, 10 mM CaCl2, 25° C.; read-out: affinity constant Ki, MMP-9 Gel-B. The experiment is classed as biochemical. As to the method: as §1, §2, §3

The subject of experiment [1] is malignant murine C26 cells. The experiment in a line: Tumorigenesis model: subcutaneous graft of malignant murine C26 cells in syngenic mice. The note with it: 150 μg of inhibitor/mouse/day, intraperitoneal. The format is in vivo. As to the method:
The tumorigenesis model used to test the effect of said RXPO3 inhibitor in vivo consists of a subcutaneous graft of malignant murine C26 cells in syngenic mice (with a genetic background similar to that of the injected cells).
The C26 cells established from Balb c mouse colic cancer (Corbett et al., 1975, Cancer Res, 35:2434-2439 [15] are cultured until subconfluence. After trypsinisation, the cells are centrifuged at 1000 g for 10 minutes. The sediment is washed and resuspended in 1×PBS. A […] volume, containing 5×10^4 C26 cells, is injected subcutaneously at 2 sites on the back of 8 to 9-week old mice. The inhibitor is solubilised in 1× PBS and […] of inhibitor in a […] volume is administered by the intraperitoneal route. The treatment starts on the day of the injection of the C26 cells and continues at a rate of one injection a day for 25 days. The tumoral volumes are measured every day.
Three identical and independent tumorigenesis experiments were conducted, according to the protocol given above. The results obtained were similar. One of them is reported below.
The experiment related to 12 animals, 6 receiving a treatment (150 μg of inhibitor/mouse/day) and 6 used as controlled animals (150 μl 1×PBS).

Another experiment deals with T6, MMP-2 (Gel-A) (Homo sapiens, UniProt P08253).
T6 construct: made in house; host or cells: E. coli
T6 sequence (P08253 110-660): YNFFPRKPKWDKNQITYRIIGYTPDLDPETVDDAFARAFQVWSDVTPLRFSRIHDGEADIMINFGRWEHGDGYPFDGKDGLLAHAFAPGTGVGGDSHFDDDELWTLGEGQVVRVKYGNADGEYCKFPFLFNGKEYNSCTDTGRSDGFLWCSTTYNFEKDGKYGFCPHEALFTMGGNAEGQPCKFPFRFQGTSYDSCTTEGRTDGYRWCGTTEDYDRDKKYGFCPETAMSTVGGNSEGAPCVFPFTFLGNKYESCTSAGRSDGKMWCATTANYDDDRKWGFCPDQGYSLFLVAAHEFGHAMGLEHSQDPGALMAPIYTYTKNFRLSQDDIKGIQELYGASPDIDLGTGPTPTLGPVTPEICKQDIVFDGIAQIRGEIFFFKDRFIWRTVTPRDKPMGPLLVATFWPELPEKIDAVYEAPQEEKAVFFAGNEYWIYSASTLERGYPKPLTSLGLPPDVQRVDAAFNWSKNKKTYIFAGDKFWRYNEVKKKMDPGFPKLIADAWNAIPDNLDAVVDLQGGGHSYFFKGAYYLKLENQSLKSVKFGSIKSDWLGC
The experiment in a line: Ki determination with fluorogenic synthetic substrates, recombinant MMP-2. The experiment is classed as biochemical. The note with it: Tris/50 mM HCl buffer, pH 6.8, 10 mM CaCl2, 25° C.; read-out: affinity constant Ki, MMP-2 Gel-A. As to the method:
as §1, §2, §3

For experiment [2], the target named is T7, MMP-11 (stromelysin-3, mST3) (Mus musculus, UniProt Q02853).
T7 construct: made in house; host or cells: E. coli
T7 sequence (Q02853 102-492): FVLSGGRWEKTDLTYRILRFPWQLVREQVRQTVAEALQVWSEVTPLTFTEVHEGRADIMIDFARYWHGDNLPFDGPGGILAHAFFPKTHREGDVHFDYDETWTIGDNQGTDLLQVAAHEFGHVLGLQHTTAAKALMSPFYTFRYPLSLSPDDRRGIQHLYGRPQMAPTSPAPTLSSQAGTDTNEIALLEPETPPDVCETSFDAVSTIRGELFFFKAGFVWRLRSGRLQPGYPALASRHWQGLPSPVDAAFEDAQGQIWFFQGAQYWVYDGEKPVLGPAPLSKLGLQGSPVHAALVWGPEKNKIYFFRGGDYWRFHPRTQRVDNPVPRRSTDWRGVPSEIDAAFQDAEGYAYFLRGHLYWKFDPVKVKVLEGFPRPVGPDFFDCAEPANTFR
As to the kind of experiment: Ki determination with fluorogenic synthetic substrates, recombinant MMP-11. The experiment is classed as biochemical, murine. As to conditions: for Ki: Tris/50 mM HCl buffer, pH 6.8, 10 mM CaCl2, 25° C., read-out: affinity constant Ki, MMP-11 mST3. As to the method: as §1, §2, §3

As to `NC(=O)C(Cc1c[nH]c2ccccc12)NC(=O)C(CCCc1ccccc1)CP(=O)(O)C(Cc1ccccc1)NC(=O)OCc1ccccc1` (single isomer, unassigned) [Compound 15 R I, ZPheΨ(PO2CpH2)pPheTrpNH2], at MMP-1 (HFC) (@ 2 mM inhibitor, listed as R I), the “percentage of inhibition, MMP-1” value is given as 18% @ 2 mM. In addition, the Ki (in general, the equilibrium dissociation constant of an inhibitor or competing ligand from its target) at MMP-8 (HNC) worked out at 16 nM; at MMP-14 (MT1-MMP) it was 90 nM; at MMP-9 (Gel-B), 42 nM; on MMP-2 (Gel-A) it was 54 nM; in experiment [2], 6 nM. Besides, the “percentage of inhibition, MMP-7” value at MMP-7 (Matrilysin) (@ 20 mM inhibitor, listed as R I) was found to be 44% @ 20 mM. In experiment [1] (Days 10 to 25), the “mean and median tumour volumes in treated versus control animals” value is “always lower”. The “difference in tumour size, treated versus control animals” value in experiment [1] (day D15 to day D20, one injection a day for 25 days) was about 50%.
`NC(=O)C(Cc1c[nH]c2ccccc12)NC(=O)C(CCCc1ccccc1)CP(=O)(O)C(Cc1ccccc1)NC(=O)c1cc2c(Cl)cc(Cl)cc2[nH]1` (stereo not drawn) [Compound 31]: the Ki on MMP-1 (HFC) (Tris/50 mM HCl buffer, pH 6.8, 10 mM CaCl2, 25° C., read-out: affinity constant Ki, MMP-1 HFC) came out at 36 nM; at MMP-8 (HNC), 5 nM; on MMP-14 (MT1-MMP), 32 nM; at MMP-7 (Matrilysin) (Tris/50 mM HCl buffer, pH 6.8, 10 mM CaCl2, 25° C., read-out: affinity constant Ki, MMP-7 Matrilysin), 117 nM; on MMP-9 (Gel-B), 7 nM; at MMP-2 (Gel-A) it was 24 nM. For the same compound, in experiment [2], the Ki turned out to be 0.9 nM. The “inhibitory power on MMP-11, in words” value in experiment [2] was “very powerful inhibitor”.
Take `CC(=O)NC(Cc1ccccc1)P(=O)(O)CC(CCCc1ccccc1)C(=O)NC(Cc1c[nH]c2ccccc12)C(N)=O` (stereo not drawn) [Compound 25]: the inhibition (in general, the relative decrease from the control value, in per cent) at 1 µM on MMP-1 (HFC) (@ 1 μM inhibitor, read-out: percentage of inhibition, MMP-1) came out at 29%; at MMP-7 (Matrilysin) (@ 1 μM inhibitor, read-out: percentage of inhibition, MMP-7), 16%. The Ki at MMP-8 (HNC) was 3.5 nM; on MMP-14 (MT1-MMP), 90 nM; at MMP-9 (Gel-B) it was 35 nM; on MMP-2 (Gel-A), 26 nM; in experiment [2], 20 nM.
